Results taken from ChEMBL document CHEMBL5113473, “Synthesis and biological evaluation of new 2‑substituted‑4‑amino-quinolines and -quinazoline as potential antifungal agents” (Bioorg Med Chem Lett, 2022).
Values after ≈ are worked out from the molar mass of the structure shown. Active and inactive are the calls of the source. No cut-off for these calls is given here.

Tests used:
Cryptococcus neoformans = assay: Antifungal activity against Cryptococcus neoformans ATCC 32045 assessed as reduction in fungal growth by CLSI protocol based broth microdilution method; assay type: functional
Candida tropicalis = assay: Antifungal activity against Candida tropicalis ATCC 1369 assessed as reduction in fungal growth by CLSI protocol based broth microdilution method; assay type: functional
Aspergillus fumigatus = assay: Antifungal activity against Aspergillus fumigatus AS 3.3913 assessed as reduction in fungal growth by CLSI protocol based broth microdilution method; assay type: functional
Candida albicans [1] = assay: Antifungal activity against Candida albicans ATCC 10231 assessed as reduction in fungal growth by CLSI protocol based broth microdilution method; assay type: functional
Candida albicans [2] = assay: Antifungal activity against Candida albicans ATCC 10231 assessed as resistance development by measuring increase in MIC at 0.5 ug/ml after 20 passages by CLSI protocol based broth microdilution method; assay type: functional; settings: dose 0.5 µg/ml
[3] = Cytotoxicity against human HUVEC cells assessed as reduction in cell viability by CCK-8 assay; assay type: toxicity, cell-based
Candida albicans [4] = assay: Fungistatic activity against Candida albicans ATCC 10231 assessed as reduction in fungal growth at 2 to 4 times MIC incubated for 36 hrs by Time kill assay; assay type: functional, organism-based; settings: DDE = dose-dependent effect
[5] = Selectivity index, ration of CC50 for cytotoxicity against human HUVEC cells to MIC for antifungal activity against Candida albicans ATCC 10231; assay type: toxicity, cell-based; settings: read-out: Selectivity Index
Cell membrane = assay: Induction of cell membrane damage in Candida albicans ATCC 10231 at 2 to 4 times MIC by propidium iodide staining based fluorescence assay
Candida albicans [6] = assay: Fungistatic activity against Candida albicans ATCC 10231 assessed as reduction in fungal growth at 4 times MIC incubated for 12 hrs by Time kill assay; assay type: functional, organism-based
[7] = Metabolic stability in mouse plasma assessed as parent compound remaining at 2 to 8 times; assay type: ADME, cell-free
Candida albicans [8] = assay: Antibiofilm activity against Candida albicans ATCC 10231 assessed as inhibition of biofilm viability by XTT reduction assay; assay type: functional, organism-based

Row | MIC (Cryptococcus neoformans) [µg/mL] | MIC (Candida tropicalis) [µg/mL] | MIC (Aspergillus fumigatus) [µg/mL] | MIC (Candida albicans [1]) [µg/mL] | Stability [7] [%] | Structure (SMILES) | MIC (Candida albicans [2]) [µg/mL] | CC50 [3] [µM] | Activity (Candida albicans [4]) | selectivity ratio [5] | Activity (Cell membrane) | Activity (Candida albicans [6]) | Activity (Candida albicans [8])
1 | > 512 | > 512 | > 512 | > 512 | – | Cc1ccc(Nc2cc(-c3cccc(Cl)c3)nc3ccccc23)cc1.Cl | – | – | – | – | – | – | –
2 | 32 | 128 | > 512 | 64 | – | Cc1ccc(Nc2cc(-c3ccc(Cl)cc3)nc3ccccc23)cc1.Cl | – | – | – | – | – | – | –
3 | 32 | 32 | 8 | 32 | – | COc1ccccc1-c1cc(Nc2ccc(C)cc2)c2ccccc2n1.Cl | – | – | – | – | – | – | –
4 | 4 | 32 | 2 | 32 | – | Cc1ccc(Nc2cc(-c3ccc(C(C)(C)C)cc3)nc3ccccc23)cc1.Cl | – | – | – | – | – | – | –
5 | 4 | 256 | 64 | 128 | – | Cc1ccc(Nc2cc(-c3ccc4ccccc4c3)nc3ccccc23)cc1.Cl | – | – | – | – | – | – | –
6 | 128 (≈ 363 µM) | > 512 | 512 (≈ 1450 µM) | > 512 | – | CCN(c1ccc(C)cc1)c1cc(-c2ccc(C)cc2)nc2ccccc12 | – | – | – | – | – | – | –
7 | 128 | 32 | 128 | 8 | – | Cc1ccc(Nc2cc(-c3cccc(C)c3)nc3ccccc23)cc1.Cl | – | – | – | – | – | – | –
8 | 4 | 256 | 128 | > 512 | – | Cc1ccc(Nc2cc(-c3ccccc3C(F)(F)F)nc3ccccc23)cc1.Cl | – | – | – | – | – | – | –
9 | 16 | 16 | 32 | 8 | – | COc1cccc(-c2cc(Nc3ccc(C)cc3)c3ccccc3n2)c1.Cl | – | – | – | – | – | – | –
10 | > 512 | 256 | > 512 | 512 | – | Cc1ccc(Nc2cc(-c3cccnc3)nc3ccccc23)cc1.Cl | – | – | – | – | – | – | –
11 | 16 | > 512 | > 512 | > 512 | – | Cc1ccc(Nc2cc(-c3ccc(C(F)(F)F)cc3)nc3ccccc23)cc1.Cl | – | – | – | – | – | – | –
12 | 32 | 16 | > 512 | 16 | – | Cc1ccc(Nc2cc(C3CCCCC3)nc3ccccc23)cc1.Cl | – | – | – | – | – | – | –
13 | 8 | 16 | 8 | 16 | – | COc1ccc(-c2cc(Nc3ccc(C)cc3)c3ccccc3n2)cc1.Cl | – | – | – | – | – | – | –
14 | 256 | 512 | 128 | 256 | – | Cc1ccc(Nc2ccnc3ccccc23)cc1.Cl | – | – | – | – | – | – | –
15 | 8 | 64 | 512 | > 512 | – | Cc1ccc(Nc2cc(-c3ccccc3Cl)nc3ccccc23)cc1.Cl | – | – | – | – | – | – | –
16 | 16 (≈ 43.4 µM) | 256 (≈ 695 µM) | 256 (≈ 695 µM) | > 512 | – | CCN(c1ccc(C)cc1)c1cc(-c2ccccc2OC)nc2ccccc12 | – | – | – | – | – | – | –
17 | > 512 | > 512 | > 512 | > 512 | – | Cc1ccc(Nc2cc(-c3cccc(F)c3)nc3ccccc23)cc1.Cl | – | – | – | – | – | – | –

Row | MIC (Cryptococcus neoformans) [µg/mL] | MIC (Candida tropicalis) [µg/mL] | MIC (Aspergillus fumigatus) [µg/mL] | MIC (Candida albicans [1]) [µg/mL] | Stability [7] [%] | Structure (SMILES) | MIC (Candida albicans [2]) [µg/mL] | CC50 [3] [µM] | Activity (Candida albicans [4]) | selectivity ratio [5] | Activity (Cell membrane) | Activity (Candida albicans [6]) | Activity (Candida albicans [8])
18 | 32 | 128 | 512 | 128 | – | Cc1ccc(Nc2cc(C3CC3)nc3ccccc23)cc1.Cl | – | – | – | – | – | – | –
19 | 256 | 256 | 128 | 256 | – | Cc1ccc(Nc2cc(C)nc3ccccc23)cc1.Cl | – | – | – | – | – | – | –
20 | 8 | 128 | 64 | > 512 | – | Cc1ccc(Nc2cc(-c3ccccc3Br)nc3ccccc23)cc1.Cl | – | – | – | – | – | – | –
21 | 32 | 16 | 128 | 32 | – | Cc1ccc(Nc2cc(-c3ccco3)nc3ccccc23)cc1.Cl | – | – | – | – | – | – | –
22 | 64 (≈ 182 µM) | 512 (≈ 1450 µM) | 512 (≈ 1450 µM) | 512 (≈ 1450 µM) | – | CCN(c1ccc(C)cc1)c1cc(-c2cccc(C)c2)nc2ccccc12 | – | – | – | – | – | – | –
23 | > 512 | > 512 | > 512 | > 512 | – | Cc1ccc(Nc2cc(-c3ccc(F)cc3)nc3ccccc23)cc1.Cl | – | – | – | – | – | – | –
24 | 64 | 32 | 16 | 64 | – | Cc1ccc(Nc2cc(C3CCCC3)nc3ccccc23)cc1.Cl | – | – | – | – | – | – | –
25 | 64 | 64 | 64 | 128 | – | Cc1ccc(Nc2cc(C3CCC3)nc3ccccc23)cc1.Cl | – | – | – | – | – | – | –
26 | 32 | 32 | 64 | 32 | – | Cc1ccc(Nc2cc(-c3ccccc3)nc3ccccc23)cc1.Cl | – | – | – | – | – | – | –
27 | > 512 | > 512 | > 512 | > 512 | – | Cc1ccc(Nc2cc(-c3ccccc3F)nc3ccccc23)cc1.Cl | – | – | – | – | – | – | –
28 | 8 | 16 | 4 | 8 | 80 | Cc1ccc(Nc2cc(-c3ccc(C)cc3)nc3ccccc23)cc1.Cl | – | 36 | Dde | 1.63 | – | Active | Active
29 | 512 | 512 | > 512 | > 512 | – | Cc1ccc(Nc2cc(-c3cccc(C(F)(F)F)c3)nc3ccccc23)cc1.Cl | – | – | – | – | – | – | –
30 | > 512 | > 512 | > 512 | > 512 | – | Cc1ccc(Nc2nc(-c3ccccc3)nc3ccccc23)cc1.Cl | – | – | – | – | – | – | –
31 | 512 | > 512 | > 512 | > 512 | – | Cc1ccc(Nc2cc(-c3ccc(Br)cc3)nc3ccccc23)cc1.Cl | – | – | – | – | – | – | –
32 | 32 | 32 | 32 | 16 | – | Cc1ccc(Nc2cc(-c3ccccc3C)nc3ccccc23)cc1.Cl | – | – | – | – | – | – | –
33 | 4 | 16 | 16 | 8 | – | Cc1ccc(Nc2cc(-c3cccs3)nc3ccccc23)cc1.Cl | – | – | – | – | – | – | –
34 | > 512 | > 512 | > 512 | > 512 | – | Cc1ccc(Nc2cc(-c3cccc(Br)c3)nc3ccccc23)cc1.Cl | – | – | – | – | – | – | –

Row | Structure (SMILES) | MIC (Cryptococcus neoformans) [µg/mL] | MIC (Candida tropicalis) [µg/mL] | MIC (Aspergillus fumigatus) [µg/mL] | MIC (Candida albicans [1]) [µg/mL] | Stability [7] [%] | MIC (Candida albicans [2]) [µg/mL] | CC50 [3] [µM] | Activity (Candida albicans [4]) | selectivity ratio [5] | Activity (Cell membrane) | Activity (Candida albicans [6]) | Activity (Candida albicans [8])
35 | C[C@@H]1[C@H](O)[C@@H](C)/C=C/C=C/C=C/C=C/C=C/C=C/C=C/[C@H](O[C@@H]2O[C@H](C)[C@@H](O)[C@H](N)[C@@H]2O)C[C@@H]2O[C@](O)(C[C@@H](O)C[C@@H](O)[C@H](O)CC[C@@H](O)C[C@@H](O)CC(=O)O[C@H]1C)C[C@H](O)[C@H]2C(=O)O [AMPHOTERICIN B] | 1 (≈ 1.08 µM) | 4 (≈ 4.33 µM) | > 512 | 1 (≈ 1.08 µM) | – | 128 (≈ 139 µM) | 4.92 | Dde | 4.55 | Active | – | –
